Publication PMC10460844, “Real‐Time Monitoring of Multitarget Antimicrobial Mechanisms of Peptoids Using Label‐Free Imaging with Optical Diffraction Tomography” (Advanced Science, 2023)
Square brackets hold non-standard residues; d marks the D form. Peptide text beside a SMILES is read from it. Gly(N(CH2)2(3-indolyl)) = O=C(O)CNCCc1c[nH]c2ccccc12; Nspe = C[C@H](NCC(=O)O)c1ccccc1; Nlys = NCCCCNCC(=O)O

Columns and labels:
[1] = Analytical reversed-phase HPLC elution (hydrophobicity); assay type: physicochemical; conditions: Table S1; analytical RP-HPLC, SunFire C18, water/ACN + 0.1% TFA, 5 to 100% B linear over 30 min, 1 mL/min, UV 220 nm; approximate comparison of hydrophobicity
Procedure: 7. HPLC chromatogram, retention time (tR), and LC-MS data
HPLC analysis of peptoids was conducted using a Waters HPLC system equipped with a Waters 2489 UV/Visible Detector, 1525 Binary HPLC Pump, 2707 Autosampler, 5CH column oven, and a C18 column (SunFire C18, 4.6 × 250 mm, 5 μm; Waters Corp., Milford, MA, USA). The mobile phases were deionized water (A, with + 0.1% TFA) and acetonitrile (ACN; B, with + 0.1% TFA). Before sample injection, the column was conditioned with 5% B for 10 min. Then, the mobile phase was maintained at 5% B for 2 min, followed by increasing B to 100% using a linear gradient over 30 min. At this point, 100% B was maintained for 5 additional min. The flow rate of the mobile phase was 1 mL/min. The sample was detected by measuring absorbance at 220 nm. […]

[2] = test system: rat erythrocytes; experiment: Hemolysis assay; assay type: cell-based; conditions: for HC10 / HC50: pH 7.4
Procedure: The hemolysis assay was performed using rat erythrocytes in phosphate‐buffered saline (PBS), as reported by Mendes et al.^[ [45] ^] Animal studies were approved by the Laboratory Animal Resource Center of Gwangju Institute of Science and Technology. Blood was collected from a 13‐week‐old male Sprague‐Dawley rat in tubes containing 158 USP units of sodium heparin to prevent coagulation and centrifuged at 1000 rpm for 10 min at 4 °C. Plasma was removed carefully and erythrocyte pellets were washed three times with PBS (35 mM phosphate, pH 7.4, 150 mM NaCl). Next, 150 µL of a 10% erythrocyte suspension was mixed with 50 µL of serially diluted peptoids (0–100 µM) in a 96‐well black polypropylene plates (Greiner, Kremsmünster, Austria). Untreated erythrocytes and cells lysed by the addition of 1% Triton X‐100 were used as negative and positive controls, respectively, with the 1% Triton X‐100‐treated wells being accepted to represent 100% hemolysis. The reaction mixture was incubated at 37 °C for 60 min, and the plates were centrifuged at 1000 rpm for 15 min. Aliquots (150 µL) of the supernatant were transferred to fresh 96‐well plates, and the absorbance of each well was measured at 540 nm using a microplate reader. Hemolysis induced by peptoids was calculated as the percentage value of Triton X‐100 lysed cells. The percentage of hemolysis by the extracts was calculated according to the following formula: % hemolysis = [(Abs 540 nm in the peptoid solution – Abs 540 nm in PBS) / (Abs 540 nm in 1% Triton X‐100 – Abs 540 nm in PBS)] × 100. HC10 and HC50 were defined as the peptoid concentrations that caused 10% and 50% hemolysis in rat erythrocytes, respectively. H max indicates the percentage of hemolysis observed at the maximum peptoid concentration, 100 µM throughout this study.

For `C[C@@H](c1ccccc1)N(CC(N)=O)C(=O)CN(C(=O)CN(CCCCN)C(=O)CN(C(=O)CN(C(=O)CN(CCCCN)C(=O)CN(CCc1c[nH]c2ccccc12)C(=O)CN(CCc1c[nH]c2ccccc12)C(=O)CN(CCCCN)C(=O)CN(CCc1c[nH]c2ccccc12)C(=O)CN(CCc1c[nH]c2ccccc12)C(=O)CNCCCCN)[C@@H](C)c1ccccc1)[C@@H](C)c1ccccc1)[C@@H](C)c1ccccc1` [peptoid 21], the HPLC elution [1] was 53.2 % MeCN, the “Hmax (100 µM)” value [2] was 83.7±2.0% and the HC10 [2] was 23.2 µM. The HC50 [2] was 64.9 µM.
In the case of `C[C@@H](c1ccccc1)N(CC(=O)N(CCc1c[nH]c2ccccc12)CC(=O)N(CCCCN)CC(=O)N(CC(=O)N(CCc1c[nH]c2ccccc12)CC(=O)N(CCCCN)CC(=O)N(CC(=O)N(CCc1c[nH]c2ccccc12)CC(=O)N(CCCCN)CC(=O)N(CC(=O)N(CCc1c[nH]c2ccccc12)CC(N)=O)[C@@H](C)c1ccccc1)[C@@H](C)c1ccccc1)[C@@H](C)c1ccccc1)C(=O)CNCCCCN` [peptoid 22] (H-[Nlys][Nspe][Gly(N(CH2)2(3-indolyl))][Nlys][Nspe][Gly(N(CH2)2(3-indolyl))][Nlys][Nspe][Gly(N(CH2)2(3-indolyl))][Nlys][Nspe][Gly(N(CH2)2(3-indolyl))]-NH2), the HPLC elution [1] is reported as 54.1 % MeCN, the “Hmax (100 µM)” value [2] is reported as 108.6±1.1% and the HC10 [2] is reported as 6.9 µM. The HC50 [2] was 19.4 µM.
In the case of `NCCCCNCC(=O)N(CCc1c[nH]c2ccccc12)CC(=O)N(CCc1c[nH]c2ccccc12)CC(=O)N(CCCCN)CC(=O)N(CCc1c[nH]c2ccccc12)CC(=O)N(CCc1c[nH]c2ccccc12)CC(=O)N(CCCCN)CC(=O)N(CCc1c[nH]c2ccccc12)CC(=O)N(CCc1c[nH]c2ccccc12)CC(=O)N(CCCCN)CC(=O)N(CCc1c[nH]c2ccccc12)CC(=O)N(CCc1c[nH]c2ccccc12)CC(N)=O` [peptoid 23] (H-[Nlys][Gly(N(CH2)2(3-indolyl))][Gly(N(CH2)2(3-indolyl))][Nlys][Gly(N(CH2)2(3-indolyl))][Gly(N(CH2)2(3-indolyl))][Nlys][Gly(N(CH2)2(3-indolyl))][Gly(N(CH2)2(3-indolyl))][Nlys][Gly(N(CH2)2(3-indolyl))][Gly(N(CH2)2(3-indolyl))]-NH2), the HPLC elution [1] is reported as 53.0 % MeCN, the “Hmax (100 µM)” value [2] is reported as 72.2±0.3% and the HC10 [2] is reported as 17.1 µM. The HC50 [2] was 45.2 µM.
In the case of `C[C@@H](c1ccccc1)N(CC(N)=O)C(=O)CN(CCCCN)C(=O)CN(CCCCN)C(=O)CN(C(=O)CN(C(=O)CN(CCCCN)C(=O)CN(CCc1c[nH]c2ccccc12)C(=O)CN(C(=O)CN(CCCCN)C(=O)CN(C(=O)CN(C(=O)CNCCCCN)[C@@H](C)c1ccccc1)[C@@H](C)c1ccccc1)[C@@H](C)c1ccccc1)[C@@H](C)c1ccccc1)[C@@H](C)c1ccccc1` [peptoid 24], the HPLC elution [1] is reported as 49.4 % MeCN, the “Hmax (100 µM)” value [2] is reported as 1.5±0.0% and the HC10 [2] is reported as greater than 100 µM. The HC50 [2] was greater than 100 µM.
With `C[C@@H](c1ccccc1)N(CC(N)=O)C(=O)CN(C(=O)CN(CCCCN)C(=O)CN(C(=O)CN(CCCCN)C(=O)CN(CCCCN)C(=O)CN(CCc1c[nH]c2ccccc12)C(=O)CN(C(=O)CN(CCCCN)C(=O)CN(C(=O)CN(C(=O)CNCCCCN)[C@@H](C)c1ccccc1)[C@@H](C)c1ccccc1)[C@@H](C)c1ccccc1)[C@@H](C)c1ccccc1)[C@@H](C)c1ccccc1` [peptoid 25] the HPLC elution [1] was 50.8 % MeCN, the “Hmax (100 µM)” value [2] was 2.7±0.4% and the HC10 [2] was greater than 100 µM. For the same compound, the HC50 [2] was greater than 100 µM.
With `C[C@@H](c1ccccc1)N(CC(N)=O)C(=O)CN(C(=O)CN(CCCCN)C(=O)CN(C(=O)CN(C(=O)CN(CCCCN)C(=O)CN(CCc1c[nH]c2ccccc12)C(=O)CN(CCCCN)C(=O)CN(CCCCN)C(=O)CN(C(=O)CN(C(=O)CNCCCCN)[C@@H](C)c1ccccc1)[C@@H](C)c1ccccc1)[C@@H](C)c1ccccc1)[C@@H](C)c1ccccc1)[C@@H](C)c1ccccc1` [peptoid 26] the HPLC elution [1] was 49.5 % MeCN, the “Hmax (100 µM)” value [2] was 0.7±0.1% and the HC10 [2] was greater than 100 µM. For the same compound, the HC50 [2] was greater than 100 µM.
In the case of `C[C@@H](c1ccccc1)N(CC(N)=O)C(=O)CN(C(=O)CN(CCCCN)C(=O)CN(C(=O)CN(C(=O)CN(CCCCN)C(=O)CN(CCc1c[nH]c2ccccc12)C(=O)CN(C(=O)CN(CCCCN)C(=O)CN(C(=O)CN(CCCCN)C(=O)CNCCCCN)[C@@H](C)c1ccccc1)[C@@H](C)c1ccccc1)[C@@H](C)c1ccccc1)[C@@H](C)c1ccccc1)[C@@H](C)c1ccccc1` [peptoid 27], the HPLC elution [1] is reported as 50.7 % MeCN, the “Hmax (100 µM)” value [2] is reported as 5.9±0.2% and the HC10 [2] is reported as greater than 100 µM. For the same compound, the HC50 [2] was greater than 100 µM.
For `C[C@@H](c1ccccc1)N(CC(=O)N(CCCCN)CC(=O)N(CCCCN)CC(=O)N(CCc1c[nH]c2ccccc12)CC(=O)N(CCc1c[nH]c2ccccc12)CC(N)=O)C(=O)CN(CCCCN)C(=O)CN(C(=O)CN(C(=O)CN(CCCCN)C(=O)CN(C(=O)CN(C(=O)CNCCCCN)[C@@H](C)c1ccccc1)[C@@H](C)c1ccccc1)[C@@H](C)c1ccccc1)[C@@H](C)c1ccccc1` [peptoid 28] (H-[Nlys][Nspe][Nspe][Nlys][Nspe][Nspe][Nlys][Nspe][Nlys][Nlys][Gly(N(CH2)2(3-indolyl))][Gly(N(CH2)2(3-indolyl))]-NH2), the HPLC elution [1] was 48.6 % MeCN, the “Hmax (100 µM)” value [2] was 8.9±1.4% and the HC10 [2] was greater than 100 µM. The HC50 [2] was greater than 100 µM.
In the case of `C[C@@H](c1ccccc1)N(CC(=O)N(CCCCN)CC(=O)N(CC(=O)N(CC(=O)N(CCCCN)CC(=O)N(CCc1c[nH]c2ccccc12)CC(=O)N(CCc1c[nH]c2ccccc12)CC(N)=O)[C@@H](C)c1ccccc1)[C@@H](C)c1ccccc1)C(=O)CN(CCCCN)C(=O)CN(CCCCN)C(=O)CN(C(=O)CN(C(=O)CNCCCCN)[C@@H](C)c1ccccc1)[C@@H](C)c1ccccc1` [peptoid 30] (H-[Nlys][Nspe][Nspe][Nlys][Nlys][Nspe][Nlys][Nspe][Nspe][Nlys][Gly(N(CH2)2(3-indolyl))][Gly(N(CH2)2(3-indolyl))]-NH2), the HPLC elution [1] is reported as 48.8 % MeCN, the “Hmax (100 µM)” value [2] is reported as 8.4±0.5% and the HC10 [2] is reported as greater than 100 µM. The HC50 [2] was greater than 100 µM.
For `C[C@@H](c1ccccc1)N(CC(=O)N(CCCCN)CC(=O)N(CC(=O)N(CC(=O)N(CCCCN)CC(=O)N(CC(=O)N(CC(=O)N(CCCCN)CC(=O)N(CCc1c[nH]c2ccccc12)CC(=O)N(CCc1c[nH]c2ccccc12)CC(N)=O)[C@@H](C)c1ccccc1)[C@@H](C)c1ccccc1)[C@@H](C)c1ccccc1)[C@@H](C)c1ccccc1)C(=O)CN(CCCCN)C(=O)CNCCCCN` [peptoid 31] (H-[Nlys][Nlys][Nspe][Nlys][Nspe][Nspe][Nlys][Nspe][Nspe][Nlys][Gly(N(CH2)2(3-indolyl))][Gly(N(CH2)2(3-indolyl))]-NH2), the HPLC elution [1] was 50.2 % MeCN, the “Hmax (100 µM)” value [2] was 18.4±5.0% and the HC10 [2] was 59.0 µM. It also gave an HC50 [2] greater than 100 µM.
For `C[C@@H](c1ccccc1)N(CC(N)=O)C(=O)CN(C(=O)CN(CCCCN)C(=O)CN(C(=O)CN(CCCCN)C(=O)CN(CCCCN)C(=O)CN(C(=O)CN(C(=O)CN(CCCCN)C(=O)CN(CCc1c[nH]c2ccccc12)C(=O)CN(CCc1c[nH]c2ccccc12)C(=O)CNCCCCN)[C@@H](C)c1ccccc1)[C@@H](C)c1ccccc1)[C@@H](C)c1ccccc1)[C@@H](C)c1ccccc1` [peptoid 33], the HPLC elution [1] was 47.9 % MeCN, the “Hmax (100 µM)” value [2] was 5.0±0.2% and the HC10 [2] was greater than 100 µM. For the same compound, the HC50 [2] was greater than 100 µM.
With `C[C@@H](c1ccccc1)N(CC(N)=O)C(=O)CN(C(=O)CN(CCCCN)C(=O)CN(C(=O)CN(C(=O)CN(CCCCN)C(=O)CN(C(=O)CN(CCCCN)C(=O)CN(CCCCN)C(=O)CN(CCc1c[nH]c2ccccc12)C(=O)CN(CCc1c[nH]c2ccccc12)C(=O)CNCCCCN)[C@@H](C)c1ccccc1)[C@@H](C)c1ccccc1)[C@@H](C)c1ccccc1)[C@@H](C)c1ccccc1` [peptoid 34] the HPLC elution [1] was 48.6 % MeCN, the “Hmax (100 µM)” value [2] was 8.5±1.1% and the HC10 [2] was greater than 100 µM. The HC50 [2] was greater than 100 µM.
With `C[C@@H](c1ccccc1)N(CC(N)=O)C(=O)CN(C(=O)CN(CCCCN)C(=O)CN(C(=O)CN(CCCCN)C(=O)CN(CCCCN)C(=O)CN(C(=O)CN(C(=O)CN(CCCCN)C(=O)CN(C(=O)CN(C(=O)CN(CCCCN)C(=O)CN(CCc1c[nH]c2ccccc12)C(=O)CNCCc1c[nH]c2ccccc12)[C@@H](C)c1ccccc1)[C@@H](C)c1ccccc1)[C@@H](C)c1ccccc1)[C@@H](C)c1ccccc1)[C@@H](C)c1ccccc1)[C@@H](C)c1ccccc1` [peptoid 35] the HPLC elution [1] was 51.8 % MeCN, the “Hmax (100 µM)” value [2] was 82.6±3.2% and the HC10 [2] was 20.4 µM. It also gave an HC50 [2] of 63.0 µM.
